Reference: US20100063020A1, “ORAL PHARMACEUTICAL FORMULATIONS AND METHODS FOR PRODUCING AND USING SAME” (priority 2004, published 2010)

How the values were obtained:
[1] = Intrinsic dissolution of high melt and low melt forms of 17-AAG in ethanol; assay type: physicochemical
Method: The performance of an active pharmaceutical ingredient (i.e., dissolution rate) can be affected by polymorphic state. The intrinsic dissolution of the high melt and low melt forms of 17-AAG were determined in ethanol. Ethanol was chosen as the solvent since 17-AAG is soluble in ethanol.

[2] = Solvent stability of low melt form (slurry in H2O:EtOH 90:10); assay type: physicochemical
Method: 17-AAG may be prepared from geldanamycin by reacting with allyamine in dry THF under a nitrogen atmosphere. The crude product may be purified by slurrying in H2O:EtOH (90:10), and the washed crystals obtained have a melting point of 206-212° C. by capillary melting point technique. […] The two 17-AAG products are designated as the low melt form and high melt form.
MP=147-155° C. ^1 H NMR and HPLC are consistent with the desired product.

in vitro = in vitro ADME; settings: human, Caco-2
Source text: The permeability of the pharmaceutical active ingredient across the gastrointestinal membrane may be estimated from it permeability across a Caco-2 cell monolayer using standard techniques (e.g. Chong S et al. Pharmaceutical Research 1997 14(12):1835-1837). The reference is hereby expressly incorporated by reference.
Propranolol was included in each assay as a high permeability control compound.

Papp (in vitro) | Compound | intrinsic dissolution rate [1] | percent higher intrinsic dissolution rate of low melt form vs high melt form [1] | conversion of polymorphic form on slurrying [2]
– | C=CCNC1=C2C[C@@H](C)C[C@H](OC)[C@H](O)[C@@H](C)/C=C(\C)[C@H](OC(N)=O)[C@@H](OC)/C=C\C=C(/C)C(=O)NC(=CC1=O)C2=O [high melt form, 17-allylamino-17-demethoxygeldanamycin] | 0.550 mg/cm^2/min | – | –
– | C=CCNC1=C2C[C@@H](C)C[C@H](OC)[C@H](O)[C@@H](C)/C=C(\C)[C@H](OC(N)=O)[C@@H](OC)/C=C\C=C(/C)C(=O)NC(=CC1=O)C2=O [low melt form of 17-AAG, 17-allylamino-17-demethoxygeldanamycin] | 0.885 mg/cm^2/min | 60% | no conversion to the high melt form was observed
16 ×10⁻⁶ cm/s | CC(C)NCC(O)COc1cccc2ccccc12 (centres unmarked) [propranolol] | – | – | –
